Experimental data as given in patent US8710184B2, “Motilin-like peptide compound having transmucosal absorbability imparted thereto” (Daiichi Sankyo Company, Limited, priority 2009, dated 2014).
Starred links: 1 amine or outer side, 2 acyl side, 3 side chain; linkers in the order of their positions; H or OH if unused. Non-standard residues stand in square brackets, D forms with d. Residues, ends and D or L forms follow the SMILES beside them. X1 = CC(C)[C@@H](C(=O)[*:2])N(C[C@@H](N)Cc1ccccc1)[*:1]; β3hPhg = O=C(C[C@@H](N[*:1])c1ccccc1)[*:2]; Sar = CNCC(=O)O

Test: Pharmacokinetic experiment on pulmonarily administered native motilin and motilin derivative compounds in rats (RIA)
Assay type: in vivo, rat
Conditions: pulmonary administration, 25 μg/rat; for Cmax / AUC: male, SD, plasma, inhaled or intranasal, 25 ug/animal; for AUC: trapezoidal method; for BA: relative to AUC of intravenous native motilin
Method: As test animals, 7- to 10-wk old male SD rats (purchased from CHARLES RIVER LABORATORIES JAPAN, INC.) that consisted of 3 rats per a group were subjected to the following experiment. Native motilin or motilin derivative compounds were dissolved in an aqueous solution of 0.1 N acetic acid to prepare a solution at a concentration of 1 mg/mL and 25 μL of the solution was administered into the polyethylene tube through the trachea by means of an intratracheal liquid spraying device (MicroSprayer; product of Penn Century). […] In the measurement, the respective derivatives were used as standard substances to construct calibration curves for determining the plasma levels.
Using these values, bioavailability (BA (%)) was calculated by the following equation: BA(%)=[(AUC/Dose)/(AUC(motilin—iv)/Dose(motilin—iv))]×100 • AUC: AUC (ng·min/mL) after pulmonary administration • Dose: dose (μg/kg) in pulmonary administration • AUC (motilin_iv): AUC (ng·min/mL) after intravenous administration of native motilin • Dose (motilin_iv): dose (μg/kg) in intravenous administration of native motilin.

BA (listed as comparative compound 2) [%] | BA (listed as compound 1) [%] | Structure (SMILES) | Cmax [ng/mL] | AUC [ng·h/mL] | BA [%]
4.1 |  | CC[C@H](C)[C@H](NC(=O)[C@@H]1CCCN1C(=O)[C@@H](NC[C@@H](N)Cc1ccccc1)C(C)C)C(=O)N[C@@H](Cc1ccccc1)C(=O)N[C@H](C(=O)N[C@@H](Cc1ccc(O)cc1)C(=O)NCC(=O)N[C@@H](CCC(=O)O)C(=O)N[C@@H](CC(C)C)C(=O)N[C@@H](CCC(N)=O)C(=O)N[C@@H](CCCNC(=N)N)C(=O)N[C@@H](CCSC)C(=O)N[C@@H](CCC(N)=O)C(=O)N[C@@H](CCC(=O)O)C(=O)N[C@@H](CCCCN)C(=O)N[C@@H](CCC(=O)O)C(=O)N[C@@H](CCCNC(=N)N)C(=O)N[C@@H](CC(N)=O)C(=O)N[C@@H](CCCCN)C(=O)NCC(=O)N[C@@H](CCC(N)=O)C(=O)O)[C@@H](C)O [Comparative compound 2, reference compound] (H-[X1]PIFTYGELQRMQEKERNKGQ-OH; N-terminus and C-terminus assumed) | 9.3 ± 3.09 | 1.98 | 4.1 ± 1.6
 | 5.3 | CC[C@H](C)[C@H](NC(=O)[C@@H]1CCCN1C(=O)[C@@H](NC(=O)[C@@H](N)Cc1ccccc1)C(C)C)C(=O)N[C@@H](Cc1ccccc1)C(=O)N[C@H](C(=O)N[C@@H](Cc1ccc(O)cc1)C(=O)NCC(=O)N[C@@H](CCC(=O)O)C(=O)N[C@@H](CC(C)C)C(=O)N[C@@H](CCC(N)=O)C(=O)N[C@@H](CCCNC(=N)N)C(=O)N[C@@H](CCSC)C(=O)N[C@@H](CCC(N)=O)C(=O)N[C@@H](CCC(=O)O)C(=O)N[C@@H](CCCCN)C(=O)N[C@@H](CCC(=O)O)C(=O)N[C@@H](CCCNC(=N)N)C(=O)N[C@@H](CC(N)=O)C(=O)N[C@@H](CCCCN)C(=O)N1CCC[C@H]1C(=O)N[C@@H](CCC(N)=O)C(=O)O)[C@@H](C)O [Compound 1] | 9.09 ± 0.53 | 1.99 | 5.3 ± 0.6
 |  | CC[C@H](C)[C@H](NC(=O)[C@@H]1CCCN1C(=O)[C@@H](NC(=O)C[C@@H](N)c1ccccc1)C(C)C)C(=O)N[C@@H](Cc1ccccc1)C(=O)N[C@H](C(=O)N[C@@H](Cc1ccc(O)cc1)C(=O)NCC(=O)N[C@@H](CCC(=O)O)C(=O)N[C@@H](CC(C)C)C(=O)N[C@@H](CCC(N)=O)C(=O)N[C@@H](CCCNC(=N)N)C(=O)N[C@@H](CC(C)C)C(=O)N[C@@H](CCC(N)=O)C(=O)N[C@@H](CCC(=O)O)C(=O)N[C@@H](CCCCN)C(=O)N[C@@H](CCC(=O)O)C(=O)N[C@@H](CCCNC(=N)N)C(=O)N1CCC[C@H]1C(=O)N[C@@H](CCCCN)C(=O)N1CCC[C@H]1C(=O)N[C@@H](CCC(N)=O)C(=O)O)[C@@H](C)O [Compound 4] (β3hPhg-VPIFTYGELQRLQEKERPKPQ-OH; N-terminus and C-terminus assumed) | 14.6 ± 8.23 | 4.69 | 11.0 ± 7.2
 |  | CC[C@H](C)[C@H](NC(=O)CN(C)C(=O)[C@@H](NC(=O)C[C@@H](N)c1ccccc1)C(C)C)C(=O)N[C@@H](Cc1ccccc1)C(=O)N[C@H](C(=O)N[C@@H](Cc1ccc(O)cc1)C(=O)NCC(=O)N[C@@H](CCC(=O)O)C(=O)N[C@@H](CC(C)C)C(=O)N[C@@H](CCC(N)=O)C(=O)N[C@@H](CCCNC(=N)N)C(=O)N[C@@H](CC(C)C)C(=O)N[C@@H](CCC(N)=O)C(=O)N[C@@H](CCC(=O)O)C(=O)N[C@@H](CCCCN)C(=O)N[C@@H](CCC(=O)O)C(=O)N[C@@H](CCCNC(=N)N)C(=O)N1CCC[C@H]1C(=O)N[C@@H](CCCCN)C(=O)N1CCC[C@H]1C(=O)N[C@@H](CCC(N)=O)C(=O)O)[C@@H](C)O [Compound 5, Phg(C#CH2) Val Sar Ile Phe Thr Tyr Gly Glu Leu Gln Arg Leu Gln Glu Lys Glu Arg Pro Lys Pro Gln] (β3hPhg-V[Sar]IFTYGELQRLQEKERPKPQ-OH; N-terminus and C-terminus assumed) | 14.8 ± 7.78 | 2.92 | 5.7 ± 2.9
